Consider one compound from paper PMC4579270, “Identification and Characterization of an Irreversible Inhibitor of CDK2” (Chemistry & Biology, 2015).

Read-outs that look alike come from different tables or passages of the source.

What all share (experiment): Dundee kinase screen re-test (standard format and 4 hour pre-incubation)
Holding throughout (type): biochemical

For assay [1], the target named is T1, TSSK1 (Homo sapiens, UniProt Q9BXA7).
T1 sequence (Q9BXA7 1-367): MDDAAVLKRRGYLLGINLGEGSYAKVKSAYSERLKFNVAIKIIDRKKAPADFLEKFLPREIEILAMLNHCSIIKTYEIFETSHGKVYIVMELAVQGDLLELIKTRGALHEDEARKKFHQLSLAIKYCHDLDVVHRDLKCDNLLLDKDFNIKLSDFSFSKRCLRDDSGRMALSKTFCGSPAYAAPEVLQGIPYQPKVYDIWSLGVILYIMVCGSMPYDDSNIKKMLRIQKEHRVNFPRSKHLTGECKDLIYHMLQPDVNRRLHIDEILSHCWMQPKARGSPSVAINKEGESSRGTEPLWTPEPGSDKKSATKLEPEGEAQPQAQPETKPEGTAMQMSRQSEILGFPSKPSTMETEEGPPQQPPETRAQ
Conditions: TSSK1, 0.5µM. In outline: (§1)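 Selectivity panel of 131 protein kinases, inhibitor tested at a single concentration of 1 µM; values are % kinase activity remaining, mean of duplicates. Re-test of selected kinases used 0.5 µM in the standard format and again after a 4 hour pre-incubation with the inhibitor.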

Assay [2] addresses PAK4 (Homo sapiens, UniProt O96013). Conditions: PAK4, 0.5µM. In outline:
as §1

Assay [3] addresses BTK (Homo sapiens, UniProt Q06187). In a few lines:
as §1

The target in assay [4] is GSK3b (Homo sapiens, UniProt P49841). In a few lines:
as §1

The target in assay [5] is T2, TAO1 (Homo sapiens, UniProt Q7L7X3).
T2 sequence (Q7L7X3 1-1001): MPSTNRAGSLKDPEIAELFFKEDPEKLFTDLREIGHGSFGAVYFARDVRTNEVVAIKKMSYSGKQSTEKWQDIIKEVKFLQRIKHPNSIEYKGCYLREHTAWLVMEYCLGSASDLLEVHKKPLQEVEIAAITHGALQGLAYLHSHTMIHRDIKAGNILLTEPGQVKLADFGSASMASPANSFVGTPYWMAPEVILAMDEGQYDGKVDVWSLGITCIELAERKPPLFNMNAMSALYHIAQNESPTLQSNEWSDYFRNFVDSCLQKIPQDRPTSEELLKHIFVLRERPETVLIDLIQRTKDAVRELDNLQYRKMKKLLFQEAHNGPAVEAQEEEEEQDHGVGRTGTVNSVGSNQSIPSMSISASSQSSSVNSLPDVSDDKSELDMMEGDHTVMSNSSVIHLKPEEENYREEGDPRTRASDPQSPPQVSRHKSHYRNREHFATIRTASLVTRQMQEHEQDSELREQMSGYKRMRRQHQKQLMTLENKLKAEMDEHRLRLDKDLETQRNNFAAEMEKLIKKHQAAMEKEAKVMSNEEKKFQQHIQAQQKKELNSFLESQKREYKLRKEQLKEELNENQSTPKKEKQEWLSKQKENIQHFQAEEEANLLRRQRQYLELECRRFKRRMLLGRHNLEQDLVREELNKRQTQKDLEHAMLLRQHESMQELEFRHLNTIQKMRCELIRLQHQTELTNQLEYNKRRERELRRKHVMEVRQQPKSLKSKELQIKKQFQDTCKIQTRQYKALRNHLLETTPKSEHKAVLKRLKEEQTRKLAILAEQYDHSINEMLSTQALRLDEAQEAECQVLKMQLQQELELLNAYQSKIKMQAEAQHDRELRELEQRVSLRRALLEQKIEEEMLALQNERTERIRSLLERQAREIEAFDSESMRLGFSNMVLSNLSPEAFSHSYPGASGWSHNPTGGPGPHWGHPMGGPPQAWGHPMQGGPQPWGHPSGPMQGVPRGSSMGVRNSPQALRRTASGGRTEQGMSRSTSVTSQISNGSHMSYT
As to conditions: TAO1, 0.5µM. In a few lines: as §1

Assay [6] addresses JNK3 (Homo sapiens, UniProt P53779). Conditions: JNK3, 0.5µM. In a few lines:
as §1

[7] abbreviates: 4hr RT preincubation, read-out: %Remaining activity at 0.5µM NU6300 - 4hr RT preincubation.
The mark [8] stands for this setting: usual format, read-out: %Remaining activity at 0.5µM NU6300 - Usual assay format.

Chain of PAK4 (O96013 whole entry): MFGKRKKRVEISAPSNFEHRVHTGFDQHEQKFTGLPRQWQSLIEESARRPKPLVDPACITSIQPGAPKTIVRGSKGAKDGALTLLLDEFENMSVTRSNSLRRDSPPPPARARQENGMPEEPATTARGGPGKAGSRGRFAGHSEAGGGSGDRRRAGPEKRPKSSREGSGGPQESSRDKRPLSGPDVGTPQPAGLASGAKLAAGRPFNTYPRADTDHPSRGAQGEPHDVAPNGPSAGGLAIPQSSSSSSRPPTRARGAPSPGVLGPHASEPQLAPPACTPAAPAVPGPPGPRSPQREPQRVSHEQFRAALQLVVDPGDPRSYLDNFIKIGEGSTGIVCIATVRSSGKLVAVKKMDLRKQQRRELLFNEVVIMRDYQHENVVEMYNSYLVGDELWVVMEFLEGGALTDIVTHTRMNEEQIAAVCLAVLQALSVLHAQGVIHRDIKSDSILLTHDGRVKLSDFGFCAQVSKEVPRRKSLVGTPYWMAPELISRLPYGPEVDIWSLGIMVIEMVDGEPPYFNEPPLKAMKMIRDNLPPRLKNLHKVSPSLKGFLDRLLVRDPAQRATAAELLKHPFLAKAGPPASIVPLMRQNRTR
Chain of JNK3 (P53779 whole entry): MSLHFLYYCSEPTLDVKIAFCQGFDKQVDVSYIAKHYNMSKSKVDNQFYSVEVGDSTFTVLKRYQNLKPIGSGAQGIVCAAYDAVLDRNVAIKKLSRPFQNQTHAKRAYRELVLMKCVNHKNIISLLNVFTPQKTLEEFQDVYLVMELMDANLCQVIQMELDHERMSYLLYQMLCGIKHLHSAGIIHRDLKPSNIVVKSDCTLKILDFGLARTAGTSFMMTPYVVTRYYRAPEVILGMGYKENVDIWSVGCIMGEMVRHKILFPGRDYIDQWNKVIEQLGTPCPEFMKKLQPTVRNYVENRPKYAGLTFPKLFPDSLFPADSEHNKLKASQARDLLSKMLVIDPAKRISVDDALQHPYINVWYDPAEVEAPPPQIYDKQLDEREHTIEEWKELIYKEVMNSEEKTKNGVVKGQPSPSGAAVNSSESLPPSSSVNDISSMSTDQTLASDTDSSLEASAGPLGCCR
Chain of GSK3b (P49841 whole entry): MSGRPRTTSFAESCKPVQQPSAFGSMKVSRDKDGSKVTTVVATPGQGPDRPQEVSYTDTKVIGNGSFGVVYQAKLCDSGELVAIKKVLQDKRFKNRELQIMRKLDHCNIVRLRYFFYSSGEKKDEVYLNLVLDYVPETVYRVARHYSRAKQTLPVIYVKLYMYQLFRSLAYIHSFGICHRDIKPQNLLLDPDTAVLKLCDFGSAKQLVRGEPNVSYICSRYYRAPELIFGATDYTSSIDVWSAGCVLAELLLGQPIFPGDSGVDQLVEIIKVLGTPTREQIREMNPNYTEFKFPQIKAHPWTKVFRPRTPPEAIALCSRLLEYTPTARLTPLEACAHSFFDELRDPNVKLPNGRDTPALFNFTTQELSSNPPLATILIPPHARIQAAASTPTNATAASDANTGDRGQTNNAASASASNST
Chain of BTK (Q06187 whole entry): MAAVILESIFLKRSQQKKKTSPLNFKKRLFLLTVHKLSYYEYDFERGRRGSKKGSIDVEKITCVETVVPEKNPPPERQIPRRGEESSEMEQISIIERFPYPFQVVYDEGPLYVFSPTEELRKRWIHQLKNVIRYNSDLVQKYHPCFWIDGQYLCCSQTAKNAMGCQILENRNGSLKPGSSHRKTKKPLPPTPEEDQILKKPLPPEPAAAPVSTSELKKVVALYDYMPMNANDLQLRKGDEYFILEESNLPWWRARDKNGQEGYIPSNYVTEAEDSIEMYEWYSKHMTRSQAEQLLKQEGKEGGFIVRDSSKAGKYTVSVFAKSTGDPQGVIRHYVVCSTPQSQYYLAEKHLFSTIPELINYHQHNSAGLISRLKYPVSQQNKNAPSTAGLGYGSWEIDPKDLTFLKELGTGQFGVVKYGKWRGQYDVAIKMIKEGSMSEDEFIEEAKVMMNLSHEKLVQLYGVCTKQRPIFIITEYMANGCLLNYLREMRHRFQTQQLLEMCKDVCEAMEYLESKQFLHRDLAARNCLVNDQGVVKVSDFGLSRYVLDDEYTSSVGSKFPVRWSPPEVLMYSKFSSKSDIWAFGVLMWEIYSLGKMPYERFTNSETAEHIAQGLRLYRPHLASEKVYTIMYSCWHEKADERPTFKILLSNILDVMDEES

With `C=CS(=O)(=O)c1ccc(Nc2nc(OCC3CCCCC3)c3nc[nH]c3n2)cc1` [NU6300, 6-(cyclohexylmethoxy)-N-(4-(vinylsulfonyl)phenyl)-9H-purin-2-amine], the remaining activity at 0.5 µM in assay [1] (setting [7]) stood at 67%; in assay [1] (setting [8]), 53%; in assay [2] (setting [7]) it was 82%; in assay [2] (setting [8]), 34%; in assay [3] (setting [7]), 28%; in assay [3] (setting [8]), 18%. Moreover, the remaining activity at 0.5 µM stood at 81% in assay [4] (setting [7]); 80% in assay [4] (setting [8]); 20% in assay [5] (setting [7]); 27% in assay [5] (setting [8]); 98% in assay [6] (setting [7]); 53% in assay [6] (setting [8]).
